In patent US8669255B2, “Substituted octahydropyrrolo[1,2-a]pyrazines as calcium channel blockers” (AbbVie Inc., priority 2011, dated 2014):

The compounds below were run on neuropathic pain (chronic constriction injury, CCI) (assay: In vivo assessment of analgesic effect against neuropathic pain (Bennett model, chronic constriction injury, tactile allodynia with von Frey filaments)). Settings: Rattus norvegicus, po, 1 h, male Sprague Dawley rats, 10 mg/kg orally, mechanical allodynia 60 minutes following administration, percentage of maximum possible effect from log g PWT, read-out: % MPE.
Method: (ii) Vivo Assessment of Analgesic Effect Against Neuropathic Pain (Bennett Model)
Animals were prepared for testing, by use of a surgical procedure that induces neuropathic pain in one paw. IACUC guidelines for rodent survival surgery were followed. All surgical procedures were conducted on a clean, uncluttered surgical station. The area was wiped with a 70% ethanol solution before and after use. All instruments were sterilized by either autoclave or chemical sterilant (such as 2% glutaraldehyde>10 hours). Surgeons wore sterile gloves (for the initial procedure), clean lab coat or scrubs, hairnet or cap, and a half-mask respirator (when not working under a hood). Surgeons thoroughly washed their hands prior to donning sterile gloves. Gloves were disinfected in-between animals by cleansing with povidone iodine, chlorhexidine or 70% alcohol for at least 30 seconds. If multiple surgeries were performed, the instruments were cleaned and sterilized between procedures with hot glass beads (>10 seconds). To prevent thermal or chemical burns, the instruments were cooled by rinsing in sterile saline before use.
Male, Sprague Dawley® rats, 175-200 g were used for surgeries. To minimize post-operative dehydration/maintain blood volume during the surgery, warmed sterile saline or Lactate Ringers solution at 10-15 mL/kg was administered subcutaneously immediately before or after surgery. This facilitates better renal function and presumably anesthesia product excretion post surgery. For all surgical procedures, anesthesia was induced with 4-5% isoflurane. Anesthesia was maintained during surgery with 1-3% isoflurane. Following induction, the surgical site was carefully shaved and the exposed area was aseptically prepared with povidone-iodine scrub solution and 70% ethanol 2-3 times.
Chronic constriction injury (CCI), a model of neuropathic pain, was produced by following the method of Bennett and Xie (Bennett, G., et al. Pain, 1988, 33, 87-107). After site sterilization and anesthetic procedures outline above were completed, a 1.5 cm incision is made at the mid-thigh level to expose the biceps femoris and gluteous superficialis (right side), which were then separated by blunt dissection. The common sciatic nerve was exposed, isolated, and loosely ligated by four 5-0 chromic gut ligatures with <1 mm spacing between each. The surgical site was closed in layers—muscle is closed with 6.0 absorbable sutures, and the skin closed with wound clips. Animals were allowed to recover on a warming plate and were returned to their home cages when fully ambulatory. Animals were not be used for testing until at least 10 days following surgery.
To measure mechanical sensitivity, tactile allodynia was measured using calibrated von Frey filaments (Stoelting, Wood Dale, Ill.) as described by Chaplan et al. (Chaplan S., et al. J of Neuroscience Methods 1994, 53, 55-63). Filament strengths used were: 0.4, 0.6, 1.0, 2, 4, 6, 8, and 15 g. Rats were placed into inverted individual plastic containers (20×12.5×20 cm) on top of a suspended wire mesh grid, and acclimated to the test chambers for at least 20 minutes. Filaments were applied perpendicular to the mid-plantar paw surface with enough force to cause slight buckling and held in place for 6-8 seconds. Positive responses included an abrupt withdrawal of the paw from the stimulus or flinching behavior immediately following removal of the stimulus. The maximum force applied was 15 g. The 50% paw withdrawal threshold (PWT) was calculated in grams (g) using the up-down method of Dixon (Dixon W. Ann Rev Pharmacol Toxicol 1980, 20, 441-462). […] All compounds were orally administered at 10 mg/kg in 10% dimethyl sulfoxide/polyethylene glycol at a volume of 2.0 mL/kg, and mechanical allodynia was determined 60 minutes following compound administration. […]

| Structure (SMILES) | inhibition in vivo at 10 mg/kg |
| --- | --- |
| O=C(c1ccc(F)c(C(F)(F)F)c1)N1CCN2C[C@H](Oc3cnc(C4CC4)cn3)C[C@H]2C1 [Example 55, [(7R,8aS)-7-[(5-cyclopropylpyrazin-2-yl)oxy]hexahydropyrrolo[1,2-a]-pyrazin-2(1H)-yl][4-fluoro-3-(trifluoromethyl)phenyl]methanone] | 31% |
| O=C(c1cccc(C(F)(F)F)c1)N1CCN2C[C@H](Oc3cnc(C4CC4)cn3)C[C@H]2C1 [Example 68, [(7R,8aS)-7-[(5-cyclopropylpyrazin-2-yl)oxy]hexahydropyrrolo[1,2-a]-pyrazin-2(1H)-yl][3-(trifluoromethyl)phenyl]methanone] | 28% |
| O=C(c1cc(C(F)(F)F)ccc1Cl)N1CCN2C[C@H](Oc3cnc(C4CC4)cn3)C[C@H]2C1 [Example 72, [2-chloro-5-(trifluoromethyl)phenyl][(7R,8aS)-7-[(5-cyclopropylpyrazin-2-yl)oxy]hexahydropyrrolo[1,2-a]pyrazin-2(1H)-yl]methanone] | 20% |
| O=C(c1cc(F)c(Cl)cc1F)N1CCN2C[C@H](Oc3cnc(C4CC4)cn3)C[C@H]2C1 [Example 73, (4-chloro-2,5-difluorophenyl)[(7R,8aS)-7-[(5-cyclopropylpyrazin-2-yl)-oxy]hexahydropyrrolo[1,2-a]pyrazin-2(1H)-yl]methanone] | 48% |
| O=C(c1cccc(C(F)(F)F)c1F)N1CCN2C[C@H](Oc3cnc(C4CC4)cn3)C[C@H]2C1 [Example 80, [(7R,8aS)-7-[(5-cyclopropylpyrazin-2-yl)oxy]hexahydropyrrolo[1,2-a]-pyrazin-2(1H)-yl][2-fluoro-3-(trifluoromethyl)phenyl]methanone] | 31% |
| O=C(c1cccc(OC(F)(F)F)c1)N1CCN2C[C@H](Oc3cnc(C4CC4)cn3)C[C@H]2C1 [Example 81, [(7R,8aS)-7-[(5-cyclopropylpyrazin-2-yl)oxy]hexahydropyrrolo[1,2-a]-pyrazin-2(1H)-yl][3-(trifluoromethoxy)phenyl]methanone] | 39% |
| O=C(/C=C/c1ccc(F)c(C(F)(F)F)c1)N1CCN2C[C@H](Oc3cnc(C4CC4)cn3)C[C@H]2C1 [Example 154, (2E)-1-[(7R,8aS)-7-[(5-cyclopropylpyrazin-2-yl)oxy]hexahydropyrrolo[1,2-a]pyrazin-2(1H)-yl]-3-[4-fluoro-3-(trifluoromethyl)phenyl]prop-2-en-1-one] | 0% |
| O=C(c1cccc(C(F)(F)F)c1)N1CC(=O)N2C[C@H](Oc3cnc(C4CC4)cn3)C[C@H]2C1 [Example 178, (7R,8aS)-7-[(5-cyclopropylpyrazin-2-yl)oxy]-2-[3-(trifluoromethyl)-benzoyl]hexahydropyrrolo[1,2-a]pyrazin-4(1H)-one] | 28% |
| CN[C@H](C(=O)N1CCN2C[C@H](Oc3cnc(C4CC4)cn3)C[C@H]2C1)c1cccc(C(F)(F)F)c1 [Example 186, (2S)-1-[(7R,8aS)-7-[(5-cyclopropylpyrazin-2-yl)oxy]hexahydropyrrolo[1,2-a]pyrazin-2(1H)-yl]-2-(methylamino)-2-[3-(trifluoromethyl)phenyl]ethanone] | 91% |
| CN[C@@H](C(=O)N1CCN2C[C@H](Oc3cnc(C4CC4)cn3)C[C@H]2C1)c1cccc(C(F)(F)F)c1 [Example 187, (2R)-1-[(7R,8aS)-7-[(5-cyclopropylpyrazin-2-yl)oxy]hexahydropyrrolo[1,2-a]pyrazin-2(1H)-yl]-2-(methylamino)-2-[3-(trifluoromethyl)phenyl]ethanone] | 67% |
